Laboratory results: patent US20070027118A1 (priority 2005, published 2007)

Assays:
11β-hsd-1 enzyme [1] = target: T1, 11β-hsd-1 enzyme (Homo sapiens, UniProt P28845); assay: biochemical; conditions: read-out: % Inh @ 0.1 mM; for inhibition at 100 µM: Table 2, inhibitor 0.1 mM as printed
Procedure, shortened: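 Human 11β-HSD-1 (5 nM) pre-incubated ≥30 min with inhibitor and 500 μM NADPH in triethanolamine buffer pH 8.0 with NaCl, n-dodecyl β-D-maltoside and β-ME; reaction started with G6P/G6PDH/MgCl2 regenerating system and 200 nM 3H-cortisone, run 60 min, stopped with DMSO. 3H-cortisol and substrate separated by radio-HPLC; percent inhibition from peak areas.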

11β-hsd-1 enzyme [2] = target: T1, 11β-hsd-1 enzyme; assay: biochemical
Procedure, shortened: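 Enzyme (5 nM) pre-incubated ≥30 min at RT with inhibitor and 500 μM NADPH in triethanolamine buffer pH 8.0; reaction started with glucose-6-phosphate regenerating system and 200 nM 3H-cortisone, stopped with DMSO after 60 min. Product quantified by radio-HPLC; Kiapp from Morrison tight-binding equation.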

T1 sequence (P28845 whole entry, species assumed): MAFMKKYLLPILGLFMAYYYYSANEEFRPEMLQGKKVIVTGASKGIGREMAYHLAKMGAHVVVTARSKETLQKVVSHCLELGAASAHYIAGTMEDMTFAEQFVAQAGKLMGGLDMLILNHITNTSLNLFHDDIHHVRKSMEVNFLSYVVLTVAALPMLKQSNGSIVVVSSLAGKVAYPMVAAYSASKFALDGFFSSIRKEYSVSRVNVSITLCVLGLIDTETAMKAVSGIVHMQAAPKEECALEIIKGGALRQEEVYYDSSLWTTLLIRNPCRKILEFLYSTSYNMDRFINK

Row | SMILES | inhibition (11β-hsd-1 enzyme [1]) | Ki (11β-hsd-1 enzyme [2]) | inhibition at 100 µM (11β-hsd-1 enzyme [1])
1 | CCc1cccc(NS(=O)(=O)N2CCN(c3cccc(OC)n3)CC2)n1 [Example 183, N-(6-ethylpyridin-2-yl)-4-(6-methoxypyridin-2-yl)piperazine-1-sulfonamide] |  | 11.5 nM | 100%
2 | CCc1cccc(NS(=O)(=O)N2CCN(c3nc4ccc(Cl)cc4o3)CC2)n1 [Example 186, 4-(6-chloro-13-benzoxazol-2-yl)-N-(6-ethylpyridin-2-yl)piperazine-1-sulfonamide] |  | 8.9 nM | 100%
3 | CCc1cccc(NS(=O)(=O)N2CCCN(c3ncccc3C#N)CC2)n1 [Example 187, 4-(3-cyanopyridin-2-yl)-N-(6-ethylpyridin-2-yl)-14-diazepane-1-sulfonamide] | 68.8% | 160 nM | 
4 | CCc1cccc(NS(=O)(=O)N2CCc3c(Cl)cccc3C2)n1 [Example 190, 5-chloro-N-(6-ethylpyridin-2-yl)-34-dihydroisoquinoline-2(1H)-sulfonamide] | 100% | 1 nM | 
5 | CCc1cccc(NS(=O)(=O)N2CCN(c3ncccn3)CC2)n1 [Example 191, N-(6-ethylpyridin-2-yl)-4-pyrimidin-2-ylpiperazine-1-sulfonamide] | 90.5% | 120 nM | 
6 | CCc1cccc(NS(=O)(=O)N2CCN(c3ccccn3)CC2)n1 [Example 194, N-(6-ethylpyridin-2-yl)-4-pyridin-2-ylpiperazine-1-sulfonamide] |  | 37 nM | 81.4%
7 | CCc1cccc(NS(=O)(=O)N2CCN(c3ncc(C(F)(F)F)cc3Cl)CC2)n1 [Example 195, 4-[3-chloro-5-(trifluoromethyl)pyridin-2-yl]-N-(6-ethylpyridin-2-yl)piperazine-1-sulfonamide] | 92.3% | 29 nM | 
8 | CCc1cccc(NS(=O)(=O)N2CCN(c3ncccc3C(F)(F)F)CC2)n1 [Example 198, N-(6-ethylpyridin-2-yl)-4-[3-(trifluoromethyl)pyridin-2-yl]piperazine-1-sulfonamide] | 69.1% | 71 nM | 
9 | CCc1cccc(NS(=O)(=O)N2CCCN(Cc3ccc(F)cc3)CC2)n1 [Example 200, N-(6-ethylpyridin-2-yl)-4-(4-fluorobenzyl)-14-diazepane-1-sulfonamide] | 96.8% | 20 nM | 
10 | CCc1cccc(NS(=O)(=O)N2CCN(c3ncccc3C#N)CC2)n1 [Example 201, 4-(3-cyanopyridin-2-yl)-N-(6-ethylpyridin-2-yl)piperazine-1-sulfonamide] | 83.9% | 33 nM | 

Results, then the molecule that gave them:

Row | inhibition (11β-hsd-1 enzyme [1]) | Ki (11β-hsd-1 enzyme [2]) | inhibition at 100 µM (11β-hsd-1 enzyme [1]) | SMILES
11 | 83.4% | 96 nM |  | CCc1cccc(NS(=O)(=O)N2CCc3conc3CC2)n1 [Example 181, N-(6-ethylpyridin-2-yl)-4578-tetrahydro-6H-isoxazolo[34-d]azepine-6-sulfonamide]
12 | 92.5% | 7.7 nM |  | CCc1cccc(NS(=O)(=O)N2CCCCCCC2)n1 [Example 193, N-(6-ethylpyridin-2-yl)azocane-1-sulfonamide]
13 | 85.8% | 20 nM |  | CCOC(=O)N1CCN(S(=O)(=O)Nc2cccc(CC)n2)CC1 [Example 196, ethyl 4-{[(6-ethylpyridin-2-yl)amino]sulfonyl}piperazine-1-carboxylate]
14 | 79.5% | 35 nM |  | CCc1cccc(NS(=O)(=O)N2CCCCCC2)n1 [Example 197, N-(6-ethylpyridin-2-yl)azepane-1-sulfonamide]
